Results on eleven molecules are retold here after ChEMBL document CHEMBL1201862, “PubChem BioAssay data set” (2004).

Each structure is given as a SMILES string.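 Exposure lasted 48 hours, with cells grown in 96-well plates and compounds tested at five concentrations. GI50 marks 50% less growth.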 Activity calls are given as the source filed them. Rule as the data show it: active = GI50 up to about 1.1 µM and inactive = higher.

Some test systems named below: 786-0; HCC 2998; LOX IMVI; U-251; HL-60; SK-MEL-5; HCT-15; SF-268; RXF 393; T47D; SF-295; PC-3; EKVX; OVCAR-4; SK-OV-3; UACC-62; SR; OVCAR-5; SNB-75; HOP-62.
Experiment in all cases: DTP human tumour cell line panel, 48 h

In the case of `Cc1ccc(NC(=O)CC(=O)N2N=C(N(C)c3ccccc3)CC2c2ccccc2)cc1` (configuration not stated), the GI50 with 786-0, in the assay with HCC 2998, with LOX IMVI, in the assay with U-251, in the assay on HL-60 and in the assay with SK-MEL-5 was > 100 µM (inactive) throughout. Moreover, the GI50 is more than 100 µM in the assay on HCT-15; > 100 µM (inactive) in the assay on SF-268; > 100 µM (inactive) in the assay with RXF 393; > 100 µM (inactive) with T47D; > 100 µM (inactive) in the assay with SF-295; > 100 µM (inactive) in the assay with PC-3. The GI50 with EKVX is > 100 µM (inactive); in the assay with OVCAR-4, 68.5 µM (inactive); in the assay on SK-OV-3, > 100 µM (inactive); in the assay on UACC-62, > 100 µM (inactive); with SR it was > 100 µM (inactive); with OVCAR-5, > 100 µM (inactive). Also, the GI50 in the assay with SNB-75 was 25.4 µM (inactive); in the assay on HOP-62 it was > 100 µM (inactive).

On to `CC(=O)Oc1c2c(c(CC=C(C)C)c3c1C(=O)C1=C[C@@H]4CC5C(C)(C)OC(C/C=C(/C)C(=O)O)(C4=O)[C@@]15O3)OC(C)(CCC=C(C)C)C=C2` (some centres not stated), for which the GI50 was 0.0989 µM (active) with 786-0; 0.61 µM (active) in the assay with HCC 2998; 0.104 µM (active) in the assay with LOX IMVI; 0.0918 µM (active) with U-251; 0.0408 µM (active) in the assay on HL-60; 0.378 µM (active) in the assay on SK-MEL-5. In addition, the GI50 with HCT-15 is 0.244 µM; with SF-268 it was 0.408 µM (active); in the assay with RXF 393, 0.144 µM (active); in the assay on T47D, 0.12 µM (active); with SF-295, 0.454 µM (active); with PC-3 it was 0.244 µM (active). For the same molecule, the GI50 in the assay with EKVX is 0.249 µM (active); in the assay with OVCAR-4 it was 0.177 µM (active); in the assay on SK-OV-3, 0.585 µM (active); in the assay on UACC-62, 0.282 µM (active); in the assay on SR, 0.258 µM (active); with OVCAR-5, 0.361 µM (active). Moreover, the 50% growth inhibitory concentration (GI50) with SNB-75 is 0.323 µM (active); with HOP-62, 0.832 µM (active).

Turning to `O=C(Cc1ccccc1F)NC1=C(Cl)C(=O)c2ccccc2C1=O`, the GI50 with 786-0 is 3.09 µM (inactive); with HCC 2998, 3.48 µM (inactive); in the assay on LOX IMVI, 1.75 µM (inactive); with U-251 it was 0.65 µM (active); with HL-60, 0.31 µM (active); in the assay on SK-MEL-5 it was 1.06 µM (active). Further, the GI50 was 0.54 µM in the assay on HCT-15; 0.249 µM (active) in the assay with RXF 393; 1.87 µM (inactive) in the assay on T47D; 2.85 µM (inactive) with SF-295; 1.25 µM (inactive) with PC-3; 3.02 µM (inactive) in the assay on EKVX. Further, the GI50 in the assay on OVCAR-4 is 0.659 µM (active); with SK-OV-3, 3.04 µM (inactive); with UACC-62, 0.481 µM (active); with SR, 0.578 µM (active); in the assay with OVCAR-5, 4.08 µM (inactive); in the assay on SNB-75, 0.655 µM (active). The GI50 in the assay with HOP-62 was 5.48 µM (inactive).

For the molecule `C=CC1(c2ccc(Cl)c(Cl)c2)OCCO1`, the GI50 was > 100 µM (inactive) in the assay with 786-0; > 100 µM (inactive) with HCC 2998; > 100 µM (inactive) with LOX IMVI; > 100 µM (inactive) in the assay with U-251; 16.6 µM (inactive) in the assay with HL-60; > 100 µM (inactive) in the assay on SK-MEL-5. The GI50 in the assay on HCT-15 was more than 100 µM; in the assay with SF-268 it was > 100 µM (inactive); in the assay on RXF 393 it was > 100 µM (inactive); in the assay with T47D, > 100 µM (inactive); in the assay with SF-295, > 100 µM (inactive); in the assay with PC-3, > 100 µM (inactive). The GI50 in the assay on EKVX was > 100 µM (inactive); in the assay with OVCAR-4 it was > 100 µM (inactive); with SK-OV-3, > 100 µM (inactive); in the assay with UACC-62, > 100 µM (inactive); in the assay with SR, 55.8 µM (inactive); with OVCAR-5, > 100 µM (inactive). Also, the GI50 with SNB-75 was 1.48 µM (inactive); in the assay on HOP-62 it was 10.8 µM (inactive).

On to `c1nnc(NCNc2nncs2)s1`, for which the GI50 with 786-0 was 46.8 µM (inactive); in the assay on HCC 2998 it was 19.2 µM (inactive); in the assay on LOX IMVI, 32.7 µM (inactive); in the assay with U-251, 50 µM (inactive); with HL-60, 46.3 µM (inactive); in the assay on SK-MEL-5, 62.2 µM (inactive). Moreover, the GI50 in the assay on HCT-15 is 40.2 µM; with SF-268 it was > 100 µM (inactive); in the assay with RXF 393 it was 29 µM (inactive); with T47D it was 90.4 µM (inactive); in the assay with SF-295, 28.1 µM (inactive); in the assay with PC-3 it was 57.1 µM (inactive). Moreover, the GI50 is 23.3 µM (inactive) in the assay with EKVX; 11.7 µM (inactive) in the assay on OVCAR-4; 23.7 µM (inactive) in the assay with SK-OV-3; 93.3 µM (inactive) with UACC-62; 36.8 µM (inactive) with SR; 79.3 µM (inactive) in the assay on OVCAR-5. Moreover, the GI50 was 30 µM (inactive) in the assay on SNB-75 and 46.5 µM (inactive) with HOP-62.

With `CCOc1cc(NC(C)=O)ccc1C(=O)N/N=C/c1ccco1`, the GI50 in the assay on 786-0 is > 100 µM (inactive); in the assay with HCC 2998 it was > 100 µM (inactive); in the assay with LOX IMVI, 38.4 µM (inactive); with HL-60, 27.9 µM (inactive); with SK-MEL-5 it was > 100 µM (inactive); in the assay on HCT-15, more than 100 µM. The GI50 in the assay with SF-268, in the assay with RXF 393, in the assay on T47D, in the assay with SF-295, in the assay on PC-3 and with EKVX was > 100 µM (inactive) each time. The GI50 in the assay with OVCAR-4 is > 100 µM (inactive); in the assay with SK-OV-3, > 100 µM (inactive); in the assay on UACC-62, 77.3 µM (inactive); in the assay with SR, 9.95 µM (inactive); in the assay on OVCAR-5 it was > 100 µM (inactive); in the assay on SNB-75 it was > 100 µM (inactive). Also, the GI50 with HOP-62 was > 100 µM (inactive).

Take `C=C(C)[C@@H]1CCc2c(c(C)cc(O)c(=O)c2O)C1`: the GI50 in the assay on 786-0 was 1.41 µM (inactive); in the assay on HCC 2998 it was 1.76 µM (inactive); with LOX IMVI it was 0.695 µM (active); with U-251, 1.3 µM (inactive); with HL-60, 0.462 µM (active); in the assay with SK-MEL-5, 0.564 µM (active). In addition, the GI50 with HCT-15 was 0.0838 µM; in the assay with SF-268 it was 2.88 µM (inactive); in the assay on RXF 393, 2.6 µM (inactive); in the assay with T47D, 3.8 µM (inactive); in the assay on SF-295, 2 µM (inactive); in the assay with PC-3, 3.85 µM (inactive). Also, the GI50 was 2.49 µM (inactive) in the assay with EKVX; 0.146 µM (active) in the assay on OVCAR-4; 1.49 µM (inactive) with SK-OV-3; 1.6 µM (inactive) with UACC-62; 0.515 µM (active) with SR; > 73.1 µM (inactive) in the assay on OVCAR-5. Also, the GI50 in the assay on SNB-75 was 3.68 µM (inactive).

As for `COC(=O)C1CN=CN1CCc1ccccc1` (configuration not stated), the GI50 in the assay on 786-0, with HCC 2998, in the assay with LOX IMVI, with U-251, in the assay on HL-60 and with SK-MEL-5 was > 100 µM (inactive) in each case. The GI50 with HCT-15 is more than 100 µM; with RXF 393, > 100 µM (inactive); with T47D it was > 100 µM (inactive); with SF-295 it was > 100 µM (inactive); in the assay on PC-3, > 100 µM (inactive); in the assay with EKVX, > 100 µM (inactive). Further, the GI50 in the assay with OVCAR-4 was > 100 µM (inactive); in the assay on SK-OV-3, > 100 µM (inactive); in the assay with UACC-62, > 100 µM (inactive); with SR it was > 100 µM (inactive); with OVCAR-5, > 100 µM (inactive); in the assay with SNB-75, 15.5 µM (inactive).

For `CCCCCCCCCCCCP(=O)(O)OCC(N)C(=O)O` (configuration not stated), the GI50 with 786-0 is 27.5 µM (inactive); in the assay on HCC 2998, 30.5 µM (inactive); with LOX IMVI it was 24.9 µM (inactive); in the assay on U-251, 11.4 µM (inactive); in the assay with HL-60 it was 15.8 µM (inactive); in the assay on SK-MEL-5, 32.5 µM (inactive). Further, the GI50 in the assay on HCT-15 was 17.5 µM; in the assay on SF-268, 23.9 µM (inactive); with RXF 393, 48.1 µM (inactive); in the assay with T47D, > 100 µM (inactive); with SF-295 it was 17.4 µM (inactive); with PC-3, 16 µM (inactive). Besides, the GI50 is 93.3 µM (inactive) in the assay on EKVX; 76.2 µM (inactive) in the assay with OVCAR-4; 21.6 µM (inactive) in the assay with SK-OV-3; 24.2 µM (inactive) in the assay with SR; 34.1 µM (inactive) with OVCAR-5; 11.4 µM (inactive) with SNB-75. Also, the GI50 with HOP-62 is 16.1 µM (inactive).

`CSc1ncnc2c1CCN2`: the GI50 was > 10 µM (inactive) in the assay on 786-0; > 10 µM (inactive) with HCC 2998; 6.34 µM (inactive) in the assay on LOX IMVI; 4.29 µM (inactive) with HL-60; 2.92 µM (inactive) in the assay with SK-MEL-5; more than 100 µM in the assay on HCT-15. In addition, the GI50 is > 10 µM (inactive) with SF-268; > 10 µM (inactive) in the assay on RXF 393; > 10 µM (inactive) with T47D; 6.81 µM (inactive) in the assay on SF-295; > 10 µM (inactive) with PC-3; > 10 µM (inactive) in the assay on EKVX. The GI50 in the assay with OVCAR-4 was > 10 µM (inactive); in the assay with SK-OV-3, > 10 µM (inactive); in the assay with UACC-62, 3.81 µM (inactive); with SR it was 1.78 µM (inactive); in the assay with OVCAR-5 it was > 10 µM (inactive); with SNB-75, > 10 µM (inactive). For the same molecule, the GI50 in the assay with HOP-62 is > 100 µM (inactive).

On to `CCNc1ncnc2sc(SCc3ccccc3)nc12`, for which the GI50 in the assay with 786-0 is > 100 µM (inactive); with HCC 2998, 81.1 µM (inactive); with LOX IMVI, 95.9 µM (inactive); with U-251 it was > 100 µM (inactive); in the assay with HL-60 it was 16.6 µM (inactive); with SK-MEL-5, 25.6 µM (inactive). In addition, the GI50 in the assay on HCT-15 is more than 100 µM; with SF-268, > 100 µM (inactive); with RXF 393, > 100 µM (inactive); with T47D, 75.5 µM (inactive); in the assay on SF-295 it was 89.5 µM (inactive); in the assay on PC-3 it was 38.5 µM (inactive). In addition, the GI50 in the assay with EKVX is 42 µM (inactive); in the assay with OVCAR-4, > 100 µM (inactive); in the assay with SK-OV-3 it was > 100 µM (inactive); with SR, 33.8 µM (inactive); in the assay on OVCAR-5, > 100 µM (inactive); in the assay with SNB-75, > 100 µM (inactive). Besides, the GI50 with HOP-62 was > 100 µM (inactive).
